Test results published in patent publication US4010184A, “Thienodiazepines” (Yoshitomi Pharmaceutical Industries, Ltd., priority 1973, dated 1977).

Assays:
[1] = test system: mice (tail electrical stimulation, absence of squeak); experiment: Analgesic Activity (Electrical Stimulation Method); type: in vivo, mouse; settings: male mice, intraperitoneal, tail stimulated 5 s, 25 volts, 40 msec., 1 cps, determined graphically; for ED50: Mus musculus, ip
Method: 1. Analgesic Activity (Electrical Stimulation Method)
The test was performed essentially in accordance with the methods described in "Journal of the Pharmaceutical Society of Japan," vol 73, p. 212 ff. (1953) and "Folia Pharmacologica Japonica," vol. 65, p. 378 ff. (1969).
Test compound was administered intraperitoneally to groups consisting 10 male mice. The tail of the mouse was electrically stimulated for 5 seconds with interrupted direct current (25 volts, 40 msec., 1 cps.). When no squeak was observed during the electrical stimulation, analgesic effect was evaluated to be positive.
The ED50 (50% effective dose) was determined graphically.

[2] = test system: mice (pentylenetetrazole lethality); experiment: Anticonvulsant Activity (pentylenetetrazole-induced death); type: in vivo, mouse; settings: intraperitoneal; for Anticonvulsant Activity %-Inhibition: 15 min before pentylenetetrazole 150 mg/kg s.c., deaths within 3 hours, at dose equal to analgesic ED50: 40 (1, 2), 30 (3), 28 (4), 200 (5), 170 (6), 200 (7) mg/kg; for A/B (A: ED50 value for analgesic activity; B: ED50 value for anticonvulsant activity): ratio of ED50 values
Method: 2. Anticonvulsant Activity
Pentylenetetrazole (150 mg/kg) was administered subcutaneously to groups consisting 6 mice 15 minutes after the intraperitoneal administration of the test compound. The number of dead mice were counted within 3 hours after the administration of pentylenetetrazole. On one hand, the %-inhibition at the dose equal to the ED50 dose for analgesic activity was determined, and on the other, the ED50, the dose required to suppress the lethal rate to 50%, was determined graphically.

Molecule | Analgesic Activity ED50 [1] [mg/kg] | Anticonvulsant Activity %-Inhibition [2] [%] | A/B (A: ED50 value for analgesic activity; B: ED50 value for anticonvulsant activity) [2] | ED50 [1] [mg/kg]
5-(3,4-dichlorophenyl)-7-ethyl-1-dimethylcarbamoyl-2,3-dihydro-1H-thieno[2,3-e][1,4]diazepine hydrochloride [Example 6] | 170 |  |  | 
5-o-chlorophenyl-7-ethyl-1-(4-methyl-1-piperazinylcarbonyl)-2,3-dihydro-1H-thieno[2,3-e][1,4]diazepine dihydrochloride 1/2 -hydrate [Example 4] | 28 |  |  | 
5-o-chlorophenyl-7-ethyl-1-piperidinocarbonyl-2,3-dihydro-1H-thieno[2,3-e][1,4]diazepine hydrochloride [Example 3] |  | 0 | < 0.4 | 
7-ethyl-1-dimethylcarbamoyl-5-phenyl-2,3-dihydro-1H-thieno[2,3-e][1,4]diazepine hydrochloric [Example 5] | > 200 |  |  | 
Cc1c(N(C)C)c(=O)n(-c2ccccc2)n1C [Aminopyrine, reference compound] |  |  |  | 100
CCc1cc2c(s1)N(C(=O)N(C)C)CCN=C2c1ccccc1Cl.Cl [Test Compound 1, 5-o-chlorophenyl-7-ethyl-1-dimethylcarbamoyl-2,3-dihydro-1H-thieno[2,3-e][1,4]diazepine hydrochloride] |  | 0 | < 0.4 | 40
CCc1cc2c(s1)N(C(=O)N(C)C)CCN=C2c1ccc(Cl)cc1.Cl [Test Compound 2, 5-p-chlorophenyl-7-ethyl-1-dimethylcarbamoyl-2,3-dihydro-1H-thieno[2,3-e][1,4]diazepine hydrochloride] |  | 0 | < 0.4 | 40
CCc1cc2c(s1)N(C(=O)NC)CCN=C2c1ccccc1Cl [Test Compound 7, 5-o-chlorophenyl-7-ethyl-1-methylcarbamoyl-2,3-dihydro-1H-thieno[2,3-e][1,4]diazepine, reference compound] |  | 100 | 2 - 4 | 200
